Measured values published in ChEMBL document CHEMBL1201861, “Genomics of Drug Sensitity in Cancer screening data, Wellcome Trust Sanger Institute”.

Key:
COR-L279 = assay: SANGER: Inhibition of human COR-L279 cell growth in a cell viability assay.; type: functional, cell-based
Calu-1 = assay: SANGER: Inhibition of human Calu-1 cell growth in a cell viability assay.; type: functional, cell-based
Caov-3 cell line = assay: cells; type: functional, cell-based; conditions: Homo sapiens;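 note: cell growth inhibition read out by a viability assay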
Description: SANGER: Inhibition of human Caov-3 cell growth in a cell viability assay.

DG-75 = assay: cells; type: functional, cell-based; conditions: Homo sapiens;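 note: growth inhibition of DG-75 cells, read out with a cell viability assay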
Description: SANGER: Inhibition of human DG-75 cell growth in a cell viability assay.

DMS-53 = assay: cells; type: functional, cell-based, Homo sapiens; conditions: Homo sapiens, DMS-53;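 note: cell viability assay measuring growth inhibition of human DMS-53 cells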
Description: SANGER: Inhibition of human DMS-53 cell growth in a cell viability assay.

DV-90 = assay: cells; type: functional, cell-based; conditions: Homo sapiens;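 note: Read-out is a viability assay, with IC50 reflecting the drop in DV-90 cell growth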
Description: SANGER: Inhibition of human DV-90 cell growth in a cell viability assay.

EB-3 = assay: cells; type: functional, cell-based; conditions: Homo sapiens;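 note: human EB-3 cells, growth inhibition read out via a cell viability assay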
Description: SANGER: Inhibition of human EB-3 cell growth in a cell viability assay.

EFE-184 = assay: cells; type: functional, cell-based; conditions: Homo sapiens
Description: SANGER: Inhibition of human EFE-184 cell growth in a cell viability assay.

EW-7 = assay: SANGER: Inhibition of human EW-7 cell growth in a cell viability assay.; type: functional, cell-based; conditions: Homo sapiens, EW-7
HSC-4 = assay: cells; type: functional, cell-based, Homo sapiens; conditions: Homo sapiens, HSC-4;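 note: growth inhibition of human HSC-4 cells, read out with a cell viability assay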
Description: SANGER: Inhibition of human HSC-4 cell growth in a cell viability assay.

IPC-298 = assay: SANGER: Inhibition of human IPC-298 cell growth in a cell viability assay.; type: functional, cell-based
IST-SL2 = assay: cells; type: functional, cell-based; conditions: Homo sapiens;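 note: growth inhibition of human IST-SL2 cells, read out by a cell viability assay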
Description: SANGER: Inhibition of human IST-SL2 cell growth in a cell viability assay.

LB647-SCLC = assay: cells; type: functional, cell-based; conditions: Homo sapiens;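 note: cell growth inhibition, read out by a viability assay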
Description: SANGER: Inhibition of human LB647-SCLC cell growth in a cell viability assay.

LC4-1 = assay: cells; type: functional, cell-based; conditions: Homo sapiens;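 note: growth inhibition of LC4-1 cells, read out with a cell viability assay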
Description: SANGER: Inhibition of human LC4-1 cell growth in a cell viability assay.

LOUCY = assay: cells; type: functional, cell-based; conditions: Homo sapiens;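 note: growth inhibition of human LOUCY cells, read out with a cell viability assay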
Description: SANGER: Inhibition of human LOUCY cell growth in a cell viability assay.

MC-CAR = assay: cells; type: functional, cell-based; conditions: Homo sapiens;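 note: growth inhibition of the human MC-CAR cell line, read out by a cell viability assay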
Description: SANGER: Inhibition of human MC-CAR cell growth in a cell viability assay.

MDA-MB-134-VI = assay: cells; type: functional, cell-based; conditions: Homo sapiens
Description: SANGER: Inhibition of human MDA-MB-134-VI cell growth in a cell viability assay.

MDA-MB-468 = assay: cells; type: functional, cell-based; conditions: Homo sapiens
Description: SANGER: Inhibition of human MDA-MB-468 cell growth in a cell viability assay.

MES-SA = assay: cells; type: functional, cell-based, Homo sapiens; conditions: Homo sapiens, MES-SA;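 note: growth inhibition of human MES-SA cells, read out with a cell viability assay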
Description: SANGER: Inhibition of human MES-SA cell growth in a cell viability assay.

MFE-296 = assay: SANGER: Inhibition of human MFE-296 cell growth in a cell viability assay.; type: functional, cell-based
NCI-H1618 = assay: cells; type: functional, cell-based; conditions: Homo sapiens;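 note: growth inhibition of human NCI-H1618 cells, measured by a cell viability assay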
Description: SANGER: Inhibition of human NCI-H1618 cell growth in a cell viability assay.

NCI-H1734 = assay: cells; type: functional, cell-based; conditions: Homo sapiens;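 note: growth inhibition of human NCI-H1734 cells, read out with a cell viability assay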
Description: SANGER: Inhibition of human NCI-H1734 cell growth in a cell viability assay.

NCI-H2009 = assay: cells; type: functional, cell-based, Homo sapiens; conditions: Homo sapiens, NCI-H2009;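 note: cell viability assay measuring inhibition of NCI-H2009 cell growth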
Description: SANGER: Inhibition of human NCI-H2009 cell growth in a cell viability assay.

NCI-H2171 = assay: cells; type: functional, cell-based; conditions: Homo sapiens;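 note: growth inhibition of human NCI-H2171 cells, read out by a cell viability assay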
Description: SANGER: Inhibition of human NCI-H2171 cell growth in a cell viability assay.

NCI-H322M = assay: cells; type: functional, cell-based; conditions: Homo sapiens;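 note: cell viability assay measuring inhibition of growth of human NCI-H322M cells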
Description: SANGER: Inhibition of human NCI-H322M cell growth in a cell viability assay.

NCI-H64 = assay: cells; type: functional, cell-based; conditions: Homo sapiens;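 note: growth inhibition of NCI-H64 cells, read out with a cell viability assay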
Description: SANGER: Inhibition of human NCI-H64 cell growth in a cell viability assay.

NCI-H838 = assay: cells; type: functional, cell-based; conditions: Homo sapiens;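 note: growth inhibition of human NCI-H838 cells, read out by a cell viability assay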
Description: SANGER: Inhibition of human NCI-H838 cell growth in a cell viability assay.

NCI-H889 = assay: cells; type: functional, cell-based; conditions: Homo sapiens;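 note: cell growth inhibition of the cell line, read out with a viability assay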
Description: SANGER: Inhibition of human NCI-H889 cell growth in a cell viability assay.

SNU-16 = assay: cells; type: functional, cell-based; conditions: Homo sapiens;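 note: growth inhibition of human SNU-16 cells, determined with a cell viability readout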
Description: SANGER: Inhibition of human NCI-SNU-16 cell growth in a cell viability assay.

PLC-PRF-5 = assay: cells; type: functional, cell-based; conditions: Homo sapiens;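 note: growth inhibition of human PLC-PRF-5 cells, read out with a viability assay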
Description: SANGER: Inhibition of human PLC-PRF-5 cell growth in a cell viability assay.

RT-4 = assay: SANGER: Inhibition of human RT4 cell growth in a cell viability assay.; type: functional, cell-based; conditions: Homo sapiens, RT-4
SCC-3 = assay: cells; type: functional, cell-based; conditions: Homo sapiens;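 note: cell viability assay measuring inhibition of SCC-3 cell growth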
Description: SANGER: Inhibition of human SCC-3 cell growth in a cell viability assay.

SIG-M5 = assay: cells; type: functional, cell-based; conditions: Homo sapiens;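 note: cell viability assay read-out, measuring how strongly growth of cultured human SIG-M5 cells is inhibited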
Description: SANGER: Inhibition of human SIG-M5 cell growth in a cell viability assay.

SIMA = assay: cells; type: functional, cell-based, Homo sapiens; conditions: Homo sapiens, SIMA;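 note: growth inhibition of SIMA cells, measured with a cell viability readout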
Description: SANGER: Inhibition of human SIMA cell growth in a cell viability assay.

SJRH30 = assay: cells; type: functional, cell-based; conditions: Homo sapiens;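 note: growth inhibition of human SJRH30 cells, read out with a cell viability assay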
Description: SANGER: Inhibition of human SJRH30 cell growth in a cell viability assay.

SK-CO-1 = assay: cells; type: functional, cell-based; conditions: Homo sapiens;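 note: growth inhibition of SK-CO-1 cells, determined by a viability readout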
Description: SANGER: Inhibition of human SK-CO-1 cell growth in a cell viability assay.

SNG-M = assay: cells; type: functional, cell-based; conditions: Homo sapiens
Description: SANGER: Inhibition of human SNG-M cell growth in a cell viability assay.

SR = assay: cells; type: functional, cell-based; conditions: Homo sapiens
Description: SANGER: Inhibition of human SR cell growth in a cell viability assay.

ST486 = assay: SANGER: Inhibition of human ST486 cell growth in a cell viability assay.; type: functional, cell-based
BC1 cell line = assay: SANGER: Inhibition of human BC-1 cell growth in a cell viability assay.; type: functional, cell-based
BOKU = assay: cells; type: functional, cell-based; conditions: Homo sapiens;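 note: growth inhibition of the human BOKU cell line, read out by a cell viability assay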
Description: SANGER: Inhibition of human BOKU cell growth in a cell viability assay.

C-4-II = assay: SANGER: Inhibition of human C-4-II cell growth in a cell viability assay.; type: functional, cell-based
CAL-148 = assay: cells; type: functional, cell-based; conditions: Homo sapiens
Description: SANGER: Inhibition of human CAL-148 cell growth in a cell viability assay.

TE-15 = assay: cells; type: functional, cell-based; conditions: Homo sapiens;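 note: cell viability readout of growth inhibition in TE-15 cells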
Description: SANGER: Inhibition of human TE-15 cell growth in a cell viability assay.

TT = assay: cells; type: functional, cell-based; conditions: Homo sapiens
Description: SANGER: Inhibition of human TT cell growth in a cell viability assay.

TUR = assay: cells; type: functional, cell-based; conditions: Homo sapiens;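 note: growth inhibition of human TUR cells, read out with a cell viability assay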
Description: SANGER: Inhibition of human TUR cell growth in a cell viability assay.

CCF-STTG1 = assay: cells; type: functional, cell-based; conditions: Homo sapiens;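 note: growth inhibition of human CCF-STTG1 cells, determined with a cell viability read-out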
Description: SANGER: Inhibition of human CCF-STTG1 cell growth in a cell viability assay.

CHP-126 = assay: cells; type: functional, cell-based; conditions: Homo sapiens
Description: SANGER: Inhibition of human CHP-126 cell growth in a cell viability assay.

COLO 205 = assay: cells; type: functional, cell-based; conditions: Homo sapiens
Description: SANGER: Inhibition of human COLO-205 cell growth in a cell viability assay.

D-423MG = assay: cells; type: functional, cell-based; conditions: Homo sapiens
Description: SANGER: Inhibition of human D-423MG cell growth in a cell viability assay.

H-EMC-SS = assay: cells; type: functional, cell-based; conditions: Homo sapiens
Description: SANGER: Inhibition of human H-EMC-SS cell growth in a cell viability assay.

LU-135 = assay: cells; type: functional, cell-based; conditions: Homo sapiens
Description: SANGER: Inhibition of human LU-135 cell growth in a cell viability assay.

NBsusSR = assay: cells; type: functional, cell-based; conditions: Homo sapiens;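 note: growth inhibition of the human cell line, read out with a cell viability assay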
Description: SANGER: Inhibition of human NBsusSR cell growth in a cell viability assay.

NCI-H630 = assay: cells; type: functional, cell-based, Homo sapiens; conditions: Homo sapiens, NCI-H630;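 note: growth inhibition of NCI-H630 cells, read out with a cell viability assay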
Description: SANGER: Inhibition of human NCI-H630 cell growth in a cell viability assay.

BALL-1 = assay: cells; type: functional, cell-based; conditions: Homo sapiens;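 note: growth inhibition of BALL-1 cells, read out with a cell viability assay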
Description: SANGER: Inhibition of human BALL-1 cell growth in a cell viability assay.

ECC10 = assay: cells; type: functional, cell-based; conditions: Homo sapiens;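 note: growth inhibition of ECC10 cells, read out by a cell viability assay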
Description: SANGER: Inhibition of human ECC10 cell growth in a cell viability assay.

H9 = assay: cells; type: functional, cell-based; conditions: Homo sapiens
Description: SANGER: Inhibition of human H9 cell growth in a cell viability assay.

C[C@]1(O)C[C@@H](c2nc(-c3ccc4ccc(-c5ccccc5)nc4c3)c3c(N)nccn32)C1 [LINSITINIB]
IC50 (COR-L279): > 2.56 µM
IC50 (Calu-1): > 2.56 µM
IC50 (Caov-3 cell line): > 2.56 µM
IC50 (DG-75): > 2.56 µM
IC50 (DMS-53): > 2.56 µM
IC50 (DV-90): > 2.56 µM
IC50 (EB-3): > 2.56 µM
IC50 (EFE-184): > 2.56 µM
IC50 (EW-7): 0.189 µM
IC50 (HSC-4): > 2.56 µM
IC50 (IPC-298): > 2.56 µM
IC50 (IST-SL2): > 2.56 µM
IC50 (LB647-SCLC): 1.77 µM
IC50 (LC4-1): > 2.56 µM
IC50 (LOUCY): > 2.56 µM
IC50 (MC-CAR): > 2.56 µM
IC50 (MDA-MB-134-VI): > 2.56 µM
IC50 (MDA-MB-468): > 2.56 µM
IC50 (MES-SA): > 2.56 µM
IC50 (MFE-296): > 2.56 µM
IC50 (NCI-H1618): > 2.56 µM
IC50 (NCI-H1734): > 2.56 µM
IC50 (NCI-H2009): > 2.56 µM
IC50 (NCI-H2171): 1.78 µM
IC50 (NCI-H322M): > 2.56 µM
IC50 (NCI-H64): > 2.56 µM
IC50 (NCI-H838): > 2.56 µM
IC50 (NCI-H889): > 2.56 µM
IC50 (SNU-16): > 2.56 µM
IC50 (PLC-PRF-5): > 2.56 µM
IC50 (RT-4): > 2.56 µM
IC50 (SCC-3): > 2.56 µM
IC50 (SIG-M5): 0.536 µM
IC50 (SIMA): 1.07 µM
IC50 (SJRH30): 0.508 µM
IC50 (SK-CO-1): > 2.56 µM
IC50 (SNG-M): > 2.56 µM
IC50 (SR): > 2.56 µM
IC50 (ST486): > 2.56 µM
IC50 (BC1 cell line): > 2.56 µM
IC50 (BOKU): > 2.56 µM
IC50 (C-4-II): > 2.56 µM
IC50 (CAL-148): > 2.56 µM
IC50 (TE-15): > 2.56 µM
IC50 (TT): > 2.56 µM
IC50 (TUR): > 2.56 µM
IC50 (CCF-STTG1): > 2.56 µM
IC50 (CHP-126): > 2.56 µM
IC50 (COLO 205): 0.105 µM

CN(Cc1cnc2nc(N)nc(N)c2n1)c1ccc(C(=O)N[C@@H](CCC(=O)O)C(=O)O)cc1 [METHOTREXATE]
IC50 (D-423MG): > 0.2 µM
IC50 (H-EMC-SS): > 0.2 µM
IC50 (HSC-4): > 0.2 µM
IC50 (LU-135): > 0.2 µM
IC50 (NBsusSR): 0.0296 µM
IC50 (NCI-H630): > 0.2 µM
IC50 (BALL-1): > 0.2 µM

O=C(c1cc(Cc2n[nH]c(=O)c3ccccc23)ccc1F)N1CCN(C(=O)C2CC2)CC1 [OLAPARIB]
IC50 (D-423MG): > 5 µM
IC50 (ECC10): > 5 µM
IC50 (H-EMC-SS): > 5 µM
IC50 (H9): > 5 µM
IC50 (HSC-4): > 5 µM
IC50 (LU-135): > 5 µM
IC50 (NBsusSR): > 5 µM
IC50 (NCI-H630): > 5 µM
IC50 (BALL-1): > 5 µM
